Laboratory results taken from PMC2630844, “Characterizing the Anti-HIV Activity of Papuamide A” (Marine Drugs, 2008).
*1 amine or outer side, *2 acyl side, *3 side chain or, on linkers, in order; H or OH if unused. Where a SMILES comes first, the peptide text is derived from it. Bridges are numbered along the chain shown (N, C = ends). Side-chain parts run from the residue outwards. [ ]: non-standard residue; d: D form. The star is where a group is joined. Gln(3S,4R-Me2) = C[C@H]([C@H](N)C(=O)O)[C@@H](C)C(N)=O; dTyr(βR-OMe) = CO[C@H](c1ccc(O)cc1)[C@@H](N)C(=O)O; Biotin = O=C1N[C@H]2[C@H](CS[C@H]2CCCCC(=O)*)N1; X3 = CC(C)[C@@H](O[*:3])[C@H](N[*:1])C(=O)[*:2]; X1 = CCC(C)/C=C(C)/C=C\C(O)C(C)(O)C(=O)*; X2 = CC(N[*:3])[C@H](N[*:1])C(=O)[*:2]; NMeT = CN[C@H](C(=O)O)[C@@H](C)O; Pip = O=C(O)[C@@H]1CCCCN1; Ahx = NCCCCCC(=O)O

Tests used:
[1] = system: HIV-1NL(AD8) (R5 tropic virus) entry into TZM-bl cells; experiment: Virion based fusion assay (BlaM-Vpr), R5 tropic virus
Protocol: Briefly, production of virus was accomplished by co-transfection of 20 μg of pMM310 (plasmid encoding β-lactamase linked to Vpr, BlaM-Vpr) [56],10 μg pAdVAntage (Invitrogen, Carlsbad, CA); and 60 μg pNL4-3(X4 tropic proviral DNA) [50] or pNL(AD8) (R5 tropic proviral DNA) [51] into 293FT cells using standard calcium phosphate transfection. Virus was collected after 48 hours and titered using the RETROtek p24 ELISA kit (ZeptoMatrix, Buffalo, NY). HeLaT4 or TZM-bl cells, 200μL at a concentration of 1 X 10^5 cells/mL, were plated into 96 well, black walled, flat bottom plates and placed in a 37°C, 5% CO2 humidified incubator overnight for attachment. Medium was aspirated and 200 μL of medium containing virus, at a predetermined p24 concentration of 200 ng/mL, was added with test compounds or vehicle. Cells were incubated at 37°C, 5% CO2 for 2 hours. Virus was aspirated off and cells rinsed twice with room temperature CO2 independent medium (Invitrogen, Carlsbad, CA). Cells were then loaded with CCF2-AM fluorescent substrate (Invitrogen, Carlsbad, CA) according to manufacturer’s protocol. Cells were incubated, protected from light, for 1 hour at room temperature and washed twice with room temperature CO2 independent medium. Next, 200 μL of room temperature CO2 independent medium supplemented with 10% FBS and 2.5mM probenecid (Sigma-Aldrich, St. Louis, MO) was added and the reaction was allowed to develop for 5–7 hours.
When fusion occurs, β-lactamase (BlaM) present in the virus cleaves the CCF2-AM substrate. This cleavage results in a change of the fluorescence emission from green to blue. Images of the cells were taken with a fluorescent microscope equipped with the appropriate filter set, Excitation filter 405±10 nm, Dicroic mirror 425, Emission Filter (blue) 460±20 nm, and Emission Filter (green) 530±15 nm. Using ImageJ, an image software program provided by NIH, the amount of green and blue fluorescence was determined. To quantify the observed fusion, a fluorescence ratio was calculated by dividing the amount of blue fluorescence by the amount of green fluorescence. This value was then normalized to the non-infected control by dividing the calculated values by the average control value.

[2] = system: liposomes composed solely of phosphatidylcholine; settings: cited from earlier work
Description: (§1) Papuamide B only differs from papuamide A by one methyl group. […] PS is a phospholipid normally present on the inner leaflet of the cell membrane, but during apoptosis the regulation of PS is altered and PS is present on the outer leaflet.

[3] = system: phosphatidylserine (PS) containing liposomes; settings: cited from earlier work
Description: as §1

[4] = Surface plasmon resonance, papuamide A - positive control peptide; assay type: binding
Protocol: (§2) The expected response at saturation is determined by the following formula: LCR/MWL×MWA , (LCR=Ligand capture response, amount of papuamide A captured onto the biosensor chip; MWL=molecular weight of ligand, papuamide A; and MWA=molecular weight of analyte, the protein or peptide.)[23–26] The observed response, determined by the BIAcore instrument detector in response units (RU), can be lower than the expected response if the concentration of analyte used is below the dissociation constant (KD) concentration value, KD values were calculated by the software from the binding responses obtained with multiple concentrations of analyte. When this is the case, the fold difference in concentration values (KD/concentration of analyte used) is approximately proportionate to the fold difference in responses (expected response/observe response). Therefore, to correct for the expected response at the maximum concentration tested, the expected response at saturation was divided by the fold difference in concentration values to determine the expected response at the maximum value tested.
Binding interactions were quantified by surface plasmon resonance (SPR). Studies were performed at the University of Utah Protein Interactions facility on a BIAcore 3000 instrument. […] Data analyzed using the SCRUBBER software, developed by the University of Utah Protein Interactions Facility.

[5] = system: pseudotype virus expressing vesicular stomatitis virus (VSV) envelope glycoprotein, CEM-SS cells; assay type: cell-based, HIV pseudotyped with vesicular stomatitis virus envelope; settings: n≥3
[6] = system: pseudotype virus infection; assay type: cell-based, HIV; settings: 174nM papuamide A; flow cytometry of GFP; data not shown
[7] = system: 20% phosphatidylserine / 80% phosphatidylcholine vesicles; experiment: Surface plasmon resonance, PS:PC vesicle binding; settings: 20% PS, 80% PC vesicles; data not shown
Protocol: (§3) Papuamide A’s ability to bind to phosphatidylserine was observed using surface plasmon resonance. Twenty percent phosphatidylserine and 80% phosphatidylcholine (PC) vesicles were tested alongside 100% PC vesicles. […] This indicates there is a preferential binding of papuamide A to phosphatidylserine. To determine if binding of PS alone was sufficient to inhibit viral entry, annexin V (AV) was tested in the virion based fusion assay.

[8] = system: VSV-G pseudotype virus, CEM-SS cells; assay type: cell-based, HIV pseudotyped with vesicular stomatitis virus envelope; settings: n≥3
[9] = system: pseudotype virus expressing LAI (X4 tropic) envelope, CEM-SS cells; assay type: cell-based, HIV; settings: 178 nM (Fig. 4; text 174nM); flow cytometry of GFP, 48 h; n≥3
[10] = molecular target: gp120 (Human immunodeficiency virus type 1 group M subtype B, UniProt P03375); experiment: Surface plasmon resonance, papuamide A - gp120; assay type: binding, HIV
Protocol: as §2
(§4) Binding interactions were quantified by surface plasmon resonance (SPR). Studies were performed at the University of Utah Protein Interactions facility on a BIAcore 3000 instrument. Briefly, papuamide A was biotinylated using the EZ-Link Sulfo-NHS-LC-LC-Biotin reagent (Pierce Biotechnology, Rockford, IL) with reaction products purified by reverse phase high performance liquid chromatography (HPLC). Biotinylation was confirmed by mass spec and presumed to target the free amine of the 2,3-diaminobutenoic acid. Biotinylated papuamide A was captured onto a chip with a carboxymethylated dextran matrix preimmobilized with streptavidin. Analytes were then flowed over the chip in hepes buffered saline (HBS) running buffer containing 1 mg/mL bovine serum albumin to reduce nonspecific binding. […] Data analyzed using the SCRUBBER software, developed by the University of Utah Protein Interactions Facility.

[11] = system: viral infection of cells preincubated overnight; experiment: Overnight preincubation of cells with papuamide A; assay type: cell-based, HIV; settings: data not shown
[12] = system: pseudotype virus expressing JRFL (R5 tropic) envelope, CEM.NKR-CCR5 cells; assay type: cell-based, HIV; settings: 178 nM (Fig. 4; text 174nM); flow cytometry of GFP, 48 h; n≥3
[13] = molecular target: T1, sCD4 (Homo sapiens, UniProt P01730); experiment: Surface plasmon resonance, papuamide A - sCD4; assay type: binding
T1 construct: Soluble CD4 (sCD4)
Protocol: as §2, §4

[14] = system: pseudotype virus expressing amphotropic murine leukemia virus (aMLV) envelope glycoprotein, CEM-SS cells; assay type: cell-based; settings: 178 nM (Fig. 4; text 174nM); flow cytometry of GFP, 48 h; n≥3
[15] = system: NL4-3 BlaM-Vpr virus entry, HeLa T4 cells; experiment: Papuamide A preincubation in virion fusion assay; assay type: cell-based, HIV-1; settings: 178 nM (Fig. 6a) or 710 nM (method), n≥3
Protocol: HeLa T4 cells were infected with NL4-3 BlaM virus and treated with 710 nM papuamide A, following these three protocols: Virus pretreated with papuamide A for 30 minutes at room temperature prior to dilution and addition to the cells; Cells pretreated with papuamide A for 2 hours followed by aspiration of papuamide A containing medium and addition of virus; Virus and papuamide A added to the cells at the same time.

[16] = system: DHIV-3 pseudotype virus expressing IIINL4 envelope, CEM-SS cells; assay type: cell-based, HIV; settings: papuamide A 178 nM with annexin V 0.1 μM; n=3
[17] = system: 100% phosphatidylcholine (PC) vesicles; experiment: Surface plasmon resonance, PC vesicle binding; settings: 100% PC vesicles; data not shown
Protocol: as §3

[18] = system: HIV-1NL4-3 (X4 tropic virus) entry into HeLa T4+ cells; experiment: Virion based fusion assay (BlaM-Vpr), X4 tropic virus; assay type: cell-based; settings: n≥4
[19] = system: DHIV-3 pseudotype virus expressing X4 tropic envelope (IIINL4), CEM-SS cells; assay type: cell-based, HIV; settings: duplicate determinations
[20] = system: HIV T cell infection; settings: binding of PS by Annexin V; cited from earlier work
Description: as §1

[21] = system: HIV infection of monocyte and macrophage; settings: binding of PS by Annexin V; cited from earlier work
Description: as §1

Molecule: papuamide B
- inhibition of viral entry ([1]; 710 nM, NL(AD8), n≥4): approximately 80%
- binding to and leakage of liposomes [2]: not those composed solely of phosphatidylcholine
- binding to and leakage of liposomes [3]: bind to and cause leakage of phosphatidylserine (PS) containing liposomes

Molecule: CCC(C)/C=C(C)/C=C\C(O)C(C)(O)C(=O)NCC(=O)N[C@H](C(=O)N[C@H](C(=O)N[C@H](C(=O)N[C@@H]1C(=O)N[C@H](COC)C(=O)NCC(=O)N[C@@H](C)C(=O)N(C)[C@@H]([C@@H](C)O)C(=O)N[C@H]([C@H](OC)c2ccc(O)cc2)C(=O)N2CCCC[C@H]2C(=O)O[C@@H]1C(C)C)[C@@H](C)[C@@H](C)C(N)=O)C(C)NC(=O)CCCCCNC(=O)CCCCCNC(=O)CCCC[C@@H]1SC[C@@H]2NC(=O)N[C@@H]21)[C@@H](C)O (stereo partly drawn) [papuamide A] (X1-GT[X2]([Ahx-Ahx-Biotin])[Gln(3S,4R-Me2)][X3][dS](Me)GA[NMeT][dTyr(βR-OMe)][Pip]; ester 5-C)
- SPR interaction with positive control peptide [4]: shown to interact with a positive control binding peptide
- Kd ([4]; calculated by software from binding responses at multiple peptide concentrations, max 5 μM, biotinylated papuamide A captured on chip): 176 µM
- inhibition of infection [5]: effectively inhibited infection
- inhibition of infection [6]: approximately 50%
- inhibition of R5 tropic virus entry ([1]; 710-43.4 nM, n≥3): effectively inhibited the entry of the R5 tropic virus in a dose dependant manner
- inhibition of X4 and R5 virus entry, papuamide A alongside annexin V ([1]; Fig. 7a, R5 (NL(AD8)), n≥4): remained active
- SPR vesicle binding [7]: exhibited binding to papuamide A
- decreased infectivity, pretreated versus simultaneous addition ([8]; 178 nM): the same as that observed when papuamide A was added to cells at the same time as VSV-G pseudotype virus
- decreased infectivity after virus pretreatment [8]: ~50%
- inhibition of infection [9]: inhibits infection
- observed response lower than calculated expected response ([10]; at maximum gp120 concentration tested): 54 times lower
- Fold Difference of Responses ([10]; expected response at saturation / observed response, gp120): 1284
- SPR binding response significance ([10]; gp120): determined not to be significant
- inhibition of infection after overnight cell preincubation [11]: failed to inhibit viral infection
- inhibition of infection [12]: inhibits infection
- observed response lower than calculated expected response ([13]; at maximum sCD4 concentration tested): 600 times lower
- Fold Difference of Responses ([13]; expected response at saturation / observed response, sCD4): 974
- SPR binding response significance ([13]; sCD4): determined not to be significant
- inhibition of infection [14]: effectively inhibited infection
- inhibition of viral entry after cell pretreatment ([15]; cells incubated with papuamide A 2 hours, removed, two washes, then infected): did not result in inhibition of viral entry
- inhibition after virus pretreatment ([15]; virus pretreated 30 minutes then diluted): rate of inhibition similar to when papuamide A was added at the same time as virus
- effect of papuamide A in presence of annexin V [16]: unchanged in the presence of AV
- SPR vesicle binding [17]: did not
- inhibition of viral entry ([18]; 710 nM papuamide A, 2 h infection, blue/green fluorescence ratio): approximately 80%
- inhibition of X4 and R5 virus entry, papuamide A alongside annexin V ([18]; Fig. 7a, X4 (NL4-3)): remained active

Molecule: Cc1cn([C@H]2C[C@H](N=[N+]=[N-])[C@@H](CO)O2)c(=O)[nH]c1=O [AZT, azidothymidine]
- effect of delayed addition, 1 hour ([19]; C34 233 nM or AZT 3.7 μM added 1 hour after virus): no difference in activity
- effect of delayed addition, 2 hours ([19]; C34 233 nM or AZT 3.7 μM added 2 hours after virus): only a minor loss of activity
- inhibition of viral entry ([18]; AZT at 18 μM, fluorescence ratio): did not prevent viral entry

B1: annexin V: a specific binder of PS (protein, UniProt P08758 2-320, looked up)
Annexin A5: AQVLRGTVTDFPGFDERADAETLRKAMKGLGTDEESILTLLTSRSNAQRQEISAAFKTLFGRDLLDDLKSELTGKFEKLIVALMKPSRLYDAYELKHALKGAGTNEKVLTEIIASRTPEELRAIKQVYEEEYGSSLEDDVVGDTSGYYQRMLVVLLQANRDPDAGIDEAQVEQDAQALFQAGELKWGTDEEKFITIFGTRSVSHLRKVFDKYMTISGFQIEETIDRETSGNLEQLLLAVVKSIRSIPAYLAETLYYAMKGAGTDDHTLIRVMVSRSEIDLFNIRKEFRKNFATSLYSMIKGDTSGDYKKALLLLCGEDD
- inhibition of R5 virus entry ([1]; annexin V at concentrations similar to and higher than that shown to inhibit HIV infection, NL(AD8), n≥4): did not have any inhibitory effect
- inhibition of infection [20]: not T cell infection
- inhibition of infection [21]: able to inhibit monocyte and macrophage infection
- inhibition of X4 virus entry ([18]; annexin V at concentrations similar to and higher than that shown to inhibit HIV infection, NL4-3): did not have any inhibitory effect
